Test results taken from patent US7863416B2, “Nociceptin-based analgesics” (Synvax, Inc., priority 2001, dated 2011).
Numbered stars: 1 amine (or outer) side, 2 acyl side, 3 side chain; on linkers, the order of the positions; unused ones are H or OH. Square brackets hold non-standard residues; d marks the D form. Peptide text beside a SMILES is read from it. * marks the point of attachment. X1 = O=C([C@H](CCc1ccc([N+](=O)[O-])cc1[N+](=O)[O-])N[*:1])[*:2]; Trp(5-CN) = N#Cc1ccc2[nH]cc(C[C@H](N)C(=O)O)c2c1; Phe(4-F) = N[C@@H](Cc1ccc(F)cc1)C(=O)O; Phe(4-Me) = Cc1ccc(C[C@H](N)C(=O)O)cc1; Phg = N[C@H](C(=O)O)c1ccccc1; Heptanoyl = CCCCCCC(=O)*

Tests used:
[1] = target: T1, human ORL1 (Homo sapiens, UniProt P41146); experiment: Stimulation of [35S]GTPγS binding in membranes of CHO cells transfected with human ORL-1; type: biochemical; conditions: for [35S]GTPγS Binding Percent Stimulation: Table 1, relative to nociceptin; for Emax: read-out: % Stimulation ± SEM of [35S]GTPγS binding; for EC50 ± SEM, stimulation of [35S]GTPγS binding: Table 6
T1 construct: expressed in transfected cells; host or cells: CHO cells (G418-selected)
Description: First, CHO cells transfected with human ORL-1 are scraped from tissue culture dishes into 20 mM HEPES, 1 mM EDTA, and then centrifuged at 500×g for 10 minutes. The cells are then re-suspended in this buffer and homogenized using a Polytron Homogenizer.
The cellular homogenate is next centrifuged at 20,000×g for 20 minutes. Following this, the resulting pellet is re-suspended in a buffer containing 20 mM HEPES, 10 mM MgCl2, and 100 mM NaCl, having a resulting pH of 7.4. The suspension is then re-centrifuged at 20,000×g and suspended once more in the above-listed buffer. The pellet may be frozen at −70° C. prior to the final centrifugation. For the binding assay, membranes (10-20 μg protein) are incubated with [^35S]GTPγγS (50 pM), GDP (usually 10 μM), and the desired compound. The total volume of the mixture is 1 ml, which is incubated for 60 min at 25° C.
Following incubation, samples are filtered over glass fiber filters and counted. […]
In these [^35S]GTPγS assays, binding was conducted as described above. EC50 values and percent stimulation were determined using the program Prism.

[2] = target: T1, human ORL1; experiment: [3H]nociceptin binding to membranes of CHO cells transfected with human ORL1; conditions: for Hill Coefficient: Table 5

T1 sequence (P41146 whole entry): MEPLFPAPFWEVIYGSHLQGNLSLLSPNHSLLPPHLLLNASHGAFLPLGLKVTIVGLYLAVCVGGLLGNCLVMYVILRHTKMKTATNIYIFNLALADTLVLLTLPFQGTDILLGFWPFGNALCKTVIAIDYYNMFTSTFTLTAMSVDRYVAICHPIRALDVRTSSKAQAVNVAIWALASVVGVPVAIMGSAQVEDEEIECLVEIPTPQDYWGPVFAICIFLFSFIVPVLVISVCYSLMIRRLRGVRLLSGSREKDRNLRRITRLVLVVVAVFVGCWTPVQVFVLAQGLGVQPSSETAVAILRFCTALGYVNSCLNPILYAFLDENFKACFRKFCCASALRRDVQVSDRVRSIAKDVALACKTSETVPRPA

Compound | Hill Coefficient [2] | Emax [1] | also measured
Ac-RYYRWR-NH2 [Ac-RYYRWR-NH2] [listing 1 of 2 here] |  |  | [35S]GTPγS Binding Percent Stimulation [1]: 100%
COc1ccc(C[C@H](NC(=O)[C@H](CCCNC(=N)N)NC(C)=O)C(=O)N[C@@H](Cc2ccc(O)cc2)C(=O)N[C@@H](CCCNC(=N)N)C(=O)N[C@@H](Cc2c[nH]c3ccccc23)C(=O)N[C@@H](CCCNC(=N)N)C(N)=O)cc1 [VII-35-C, Ac-Arg-Tyr(4-Me)-Tyr-Arg-Trp-Arg-NH2] (Ac-RY(Me)YRWR-NH2) | 0.75 | 52.1 ± 0.6% | 
CC(=O)N[C@@H](CCCNC(=N)N)C(=O)N[C@@H](Cc1ccc(F)cc1)C(=O)N[C@@H](Cc1ccc(O)cc1)C(=O)N[C@@H](CCCNC(=N)N)C(=O)N[C@@H](Cc1c[nH]c2ccccc12)C(=O)N[C@@H](CCCNC(=N)N)C(N)=O [VII-31-B, Ac-Arg-Phe(4-F)-Tyr-Arg-Trp-Arg-NH2] (Ac-R[Phe(4-F)]YRWR-NH2) | 0.81 | 54.4 ± 1.2% | 
CC(=O)N[C@@H](CCCNC(=N)N)C(=O)N[C@@H](Cc1ccc(O)cc1)C(=O)N[C@H](C(=O)N[C@@H](CCCNC(=N)N)C(=O)N[C@@H](Cc1c[nH]c2ccccc12)C(=O)N[C@@H](CCCNC(=N)N)C(N)=O)c1ccccc1 [VII-13-B, Ac-Arg-Tyr-Phg-Arg-Trp-Arg-NH2] (Ac-RY[Phg]RWR-NH2) | 0.73 |  | 
Ac-RYYRWR-NH2 [Ac-RYYRWR-NH2] [listing 2 of 2 here] |  |  | EC50 [1]: 1.2 nM
CC(=O)N[C@@H](CCCNC(=N)N)C(=O)N[C@@H](Cc1ccc(F)cc1)C(=O)N[C@@H](Cc1ccc(F)cc1)C(=O)N[C@@H](CCCNC(=N)N)C(=O)N[C@@H](Cc1c[nH]c2ccccc12)C(=O)N[C@@H](CCCNC(=N)N)C(N)=O [VII-33-B, Ac-Arg-Phe(4-F)-Phe(4-F)-Arg-Trp-Arg-NH2] (Ac-R[Phe(4-F)][Phe(4-F)]RWR-NH2) | 0.89 | < 20% | EC50 ± SEM, stimulation of [35S]GTPγS binding [1]: FLAT
CC(=O)N[C@@H](CCCNC(=N)N)C(=O)N[C@@H](Cc1ccc(C)cc1)C(=O)N[C@@H](Cc1ccc(O)cc1)C(=O)N[C@@H](CCCNC(=N)N)C(=O)N[C@@H](Cc1c[nH]c2ccccc12)C(=O)N[C@@H](CCCNC(=N)N)C(N)=O [VII-15-B, Ac-Arg-Phe(4-Me)-Tyr-Arg-Trp-Arg-NH2] (Ac-R[Phe(4-Me)]YRWR-NH2) | 0.79 | 59.8 ± 16.2% | 
CC(=O)N[C@@H](CCCNC(=N)N)C(=O)N[C@@H](Cc1ccc(C)cc1)C(=O)N[C@@H](Cc1ccc(C)cc1)C(=O)N[C@@H](CCCNC(=N)N)C(=O)N[C@@H](Cc1c[nH]c2ccccc12)C(=O)N[C@@H](CCCNC(=N)N)C(N)=O [VII-17-B, Ac-Arg-Phe(4-Me)-Phe(4-Me)-Arg-Trp-Arg-NH2] (Ac-R[Phe(4-Me)][Phe(4-Me)]RWR-NH2) | 1.06 | < 20% | EC50 ± SEM, stimulation of [35S]GTPγS binding [1]: FLAT
CC(=O)N[C@@H](CCCNC(=N)N)C(=O)N[C@H](C(=O)N[C@H](C(=O)N[C@@H](CCCNC(=N)N)C(=O)N[C@@H](Cc1c[nH]c2ccccc12)C(=O)N[C@@H](CCCNC(=N)N)C(N)=O)c1ccccc1)c1ccccc1 [VII-11-B, Ac-Arg-Phg-Phg-Arg-Trp-Arg-NH2] (Ac-R[Phg][Phg]RWR-NH2) | 0.93 |  | 
CC(=O)N[C@@H](CCCNC(=N)N)C(=O)N[C@@H](Cc1ccc(O)cc1)C(=O)N[C@@H](Cc1ccc(O)cc1)C(=O)N[C@@H](CCCNC(=N)N)C(=O)N[C@@H](Cc1c[nH]c2ccc(C#N)cc12)C(=O)N[C@@H](CCCNC(=N)N)C(N)=O [VII-51-A, Ac-Arg-Tyr-Tyr-Arg-Trp(5-CN)-Arg-NH2] (Ac-RYYR[Trp(5-CN)]R-NH2) | 0.7 | 49.1 ± 0.19% | Ki [2]: 0.3 ± 0.133 nM
CCCCCCC(=O)N[C@@H](CCCNC(=N)N)C(=O)N[C@@H](Cc1ccc(O)cc1)C(=O)N[C@@H](Cc1ccc(O)cc1)C(=O)N[C@@H](CCCNC(=N)N)C(=O)N[C@@H](Cc1c[nH]c2ccccc12)C(=O)N[C@@H](CCCNC(=N)N)C(N)=O [IV-18-C, Heptanoyl-RYYRWR-NH2] (Heptanoyl-RYYRWR-NH2) |  |  | IC50 [2]: 2.6 nM; [35S]GTPγS Binding Percent Stimulation [1]: 54%
CC(=O)N[C@@H](CCCNC(=N)N)C(=O)N[C@@H](Cc1ccc(O)cc1)C(=O)N[C@@H](CCc1ccc([N+](=O)[O-])cc1[N+](=O)[O-])C(=O)N[C@@H](CCCNC(=N)N)C(=O)N[C@@H](Cc1c[nH]c2ccccc12)C(=O)N[C@@H](CCCNC(=N)N)C(N)=O [VII-71-B, Ac-Arg-Tyr-hPhe(2,4-di-NO2)-Arg-Trp-Arg-NH2] (Ac-RY[X1]RWR-NH2) | 0.88 | 33.6 ± 16.8% | 
